Molecules are shown by their SMILES.

The subject of the assay is 966289-007-R4-J1-PDC complex spheroid viability. The experiment in a line: Anticancer human tumor 966289-007-R4-J1-PDC patient-derived pancreatic adenocarcinoma cell line growth inhibition [RAS]. Particulars: for viability, T/C: stronger effect = lower value. Summed up:
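Tumour cells grown as complex spheroids with HUVEC endothelial cells and mesenchymal stem cells, treated with RAS pathway inhibitor combinations. Each agent spans half-log steps from near clinical Cmax, or 10 microM where Cmax is unknown.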

[1] abbreviates: curve of first compound, second compound 0.000949 µM.
Where [2] appears, read: curve of first compound, second compound 0.003 µM.
[3] abbreviates: curve of first compound, second compound 0.00949 µM.
Setting [4] is: curve of first compound, second compound 0.03 µM.
Setting [5] is: curve of first compound, second compound 0.0949 µM.
Setting [6] is: curve of first compound, second compound 0.3 µM.
Setting [7] is: second compound 0.000949 µM, first compound 0.0316 µM.
Where [8] appears, read: second compound 0.000949 µM, first compound 0.1 µM.
Where [9] appears, read: second compound 0.000949 µM, first compound 0.316 µM.
[10] abbreviates: second compound 0.000949 µM, first compound 1 µM.
The mark [11] stands for this setting: second compound 0.003 µM, first compound 0.0316 µM.
The mark [12] stands for this setting: second compound 0.003 µM, first compound 0.1 µM.
The mark [13] stands for this setting: second compound 0.003 µM, first compound 0.316 µM.
[14] abbreviates: second compound 0.003 µM, first compound 1 µM.
Setting [15] is: second compound 0.00949 µM, first compound 0.0316 µM.
The mark [16] stands for this setting: second compound 0.00949 µM, first compound 0.1 µM.
Setting [17] is: second compound 0.00949 µM, first compound 0.316 µM.
The mark [18] stands for this setting: second compound 0.00949 µM, first compound 1 µM.
Setting [19] is: second compound 0.03 µM, first compound 0.0316 µM.
Setting [20] is: second compound 0.03 µM, first compound 0.1 µM.
Where [21] appears, read: second compound 0.03 µM, first compound 0.316 µM.
[22] abbreviates: second compound 0.03 µM, first compound 1 µM.
Where [23] appears, read: second compound 0.0949 µM, first compound 0.0316 µM.
Where [24] appears, read: second compound 0.0949 µM, first compound 0.1 µM.
The mark [25] stands for this setting: second compound 0.0949 µM, first compound 0.316 µM.
Setting [26] is: second compound 0.0949 µM, first compound 1 µM.
The mark [27] stands for this setting: second compound 0.3 µM, first compound 0.0316 µM.
[28] abbreviates: second compound 0.3 µM, first compound 0.1 µM.
Where [29] appears, read: second compound 0.3 µM, first compound 0.316 µM.
Where [30] appears, read: second compound 0.3 µM, first compound 1 µM.
[31] abbreviates: second compound 0.000949 µM, first compound 3.16 µM.
Setting [32] is: second compound 0.000949 µM, first compound 10 µM.
The mark [33] stands for this setting: second compound 0.003 µM, first compound 3.16 µM.
Setting [34] is: second compound 0.003 µM, first compound 10 µM.
[35] abbreviates: second compound 0.00949 µM, first compound 3.16 µM.
Where [36] appears, read: second compound 0.00949 µM, first compound 10 µM.
Setting [37] is: second compound 0.03 µM, first compound 3.16 µM.
Where [38] appears, read: second compound 0.03 µM, first compound 10 µM.
Setting [39] is: second compound 0.0949 µM, first compound 3.16 µM.
The mark [40] stands for this setting: second compound 0.0949 µM, first compound 10 µM.
[41] abbreviates: second compound 0.3 µM, first compound 3.16 µM.
Setting [42] is: second compound 0.3 µM, first compound 10 µM.
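Further: spheroids exposed to agents for one week before readout.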
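Wherever viability, T/C is given: percent viability relative to DMSO vehicle control wells as 100%.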

As for `O=C(c1ccc(F)c(F)c1Nc1ccc(I)cc1F)N1CC(O)([C@@H]2CCCCN2)C1` + CCn1c(-c2cccnc2C(C)OC)c2c3cc(ccc31)N1CCOC(CC(NC(=O)C(C(C)C)N(C)C(=O)C3(F)CCN(C(=O)C#CC(C)(C)N(C)C)CC3)C(=O)N3CCCC(N3)C(=O)OCC(C)(C)C2)C1, the IC50 was above 1000 nM under setting [1]; above 1000 nM under setting [2]; 940 nM under setting [3]; 848 nM under setting [4]; above 1000 nM under setting [5]; 661 nM under setting [6]. Besides, the viability, T/C runs as follows: (second compound 0.000949 µM, first compound 0.00316 µM) 95.6%; (second compound 0.000949 µM, first compound 0.01 µM) 94.9%; under setting [7], 102%; under setting [8], 84.4%; under setting [9], 78.9%; under setting [10], 60.3%. Further, the viability, T/C is 76.5% (second compound 0.003 µM, first compound 0.00316 µM); 82.9% (second compound 0.003 µM, first compound 0.01 µM); 99.5% under setting [11]; 79.5% under setting [12]; 86.1% under setting [13]; 59.4% under setting [14]. Also, the viability, T/C reads like this: (second compound 0.00949 µM, first compound 0.00316 µM) 79.6%; (second compound 0.00949 µM, first compound 0.01 µM) 84.6%; under setting [15], 85.2%; under setting [16], 89%; under setting [17], 83.9%; under setting [18], 48.1%. In addition, the viability, T/C is 72.8% (second compound 0.03 µM, first compound 0.00316 µM); 86.5% (second compound 0.03 µM, first compound 0.01 µM); 101% under setting [19]; 74.1% under setting [20]; 84.1% under setting [21]; 44.3% under setting [22]. Besides, the viability, T/C (second compound 0.0949 µM, first compound 0.00316 µM) was 88%; the viability, T/C (second compound 0.0949 µM, first compound 0.01 µM) is 83.3%; the viability, T/C under setting [23] was 99.1%; the viability, T/C under setting [24] was 82.5%; the viability, T/C under setting [25] was 72.6%; the viability, T/C under setting [26] was 56%. The viability, T/C was 89.4% (second compound 0.3 µM, first compound 0.00316 µM); 78.5% (second compound 0.3 µM, first compound 0.01 µM); 84.2% under setting [27]; 82.9% under setting [28]; 62.9% under setting [29]; 42.8% under setting [30].

For `O=C(c1ccc(F)c(F)c1Nc1ccc(I)cc1F)N1CC(O)([C@@H]2CCCCN2)C1`, the viability, T/C (compound 0.00316 µM) was 90.5% [middle of 4 runs]; the viability, T/C (compound 0.01 µM) was 97.5% [middle of 4 runs]; the viability, T/C (compound 0.0316 µM) was 90.4% [middle of 4 runs]; the viability, T/C (compound 0.1 µM) is 75.8% [middle of 4 runs]; the viability, T/C (compound 0.316 µM) was 68.9% [middle of 4 runs].

On to `C#Cc1c(F)ccc2cc(O)cc(-c3ncc4c(N5CC6CCC(C5)N6)nc(OCC56CCCN5CC(F)C6)nc4c3F)c12` (centres undefined), for which the viability, T/C is 114% [middle of 8 runs] (compound 0.316 µM) and 94.4% [middle of 8 runs] (compound 3.16 µM). Besides, the IC50 (compound alone, run of 06/10/2024) was above 10000 nM.

With `CC1(O)CCCC1n1c(=O)c(C(F)F)cc2cnc(NC3CCN(S(C)(=O)=O)CC3)nc21` (centres undefined) + CCn1c(-c2cccnc2C(C)OC)c2c3cc(ccc31)N1CCOC(CC(NC(=O)C(C(C)C)N(C)C(=O)C3(F)CCN(C(=O)C#CC(C)(C)N(C)C)CC3)C(=O)N3CCCC(N3)C(=O)OCC(C)(C)C2)C1, the IC50 is, setting by setting: under setting [1], 126 nM; under setting [2], 155 nM; under setting [3], 155 nM; under setting [4], 81.7 nM; under setting [5], 106 nM; under setting [6], 107 nM. Also, the viability, T/C is 102% under setting [7]; 57.9% under setting [8]; 21.9% under setting [9]; 24.9% under setting [10]; 20.7% under setting [31]; 3.78% under setting [32]. Further, the viability, T/C runs as follows: under setting [11], 115%; under setting [12], 67.3%; under setting [13], 21.2%; under setting [14], 22.8%; under setting [33], 23.8%; under setting [34], 4.11%. In addition, the viability, T/C is 83.1% under setting [15]; 68.5% under setting [16]; 19.7% under setting [17]; 18.9% under setting [18]; 23.4% under setting [35]; 2.04% under setting [36]. Also, the viability, T/C under setting [19] is 91.6%; the viability, T/C under setting [20] was 41.3%; the viability, T/C under setting [21] was 18.8%; the viability, T/C under setting [22] is 21.4%; the viability, T/C under setting [37] was 24.4%; the viability, T/C under setting [38] was 1.8%. Further, the viability, T/C under setting [23] is 99.3%; the viability, T/C under setting [24] is 51.8%; the viability, T/C under setting [25] was 16.9%; the viability, T/C under setting [26] was 21.4%; the viability, T/C under setting [39] was 26%; the viability, T/C under setting [40] is 1.18%. In addition, the viability, T/C under setting [27] is 64.1%; the viability, T/C under setting [28] was 52.2%; the viability, T/C under setting [29] was 16%; the viability, T/C under setting [30] was 23.2%; the viability, T/C under setting [41] is 24.1%; the viability, T/C under setting [42] was 1.49%.

`CCC(CC)c1cc(NC2CCC(N)C2)n2nccc2n1` (centres undefined): the viability, T/C reads like this: (compound 0.1 µM) 92.7% [middle of 4 runs]; (compound 0.316 µM) 109% [middle of 4 runs]; (compound 3.16 µM) 2.28% [middle of 4 runs]; (compound 10 µM) 2.13% [middle of 4 runs]. For the same compound, the IC50 (curve of compound) is 1.86 µM [middle of 4 runs].

Turning to `CC(Nc1ccc2c(c1)OCCn1cc(N3C(=O)OCC3C(F)F)nc1-2)C(N)=O` (centres undefined) + CCn1c(-c2cc(N3CCN(C)CC3)cnc2C(C)OC)c2c3cc(ccc31)-c1csc(n1)CC(NC(=O)C1CC1C)C(=O)N1CCCC(N1)C(=O)OCC(C)(C)C2, the IC50 under setting [1] is above 10000 nM; the IC50 under setting [2] is above 10000 nM; the IC50 under setting [3] was above 10000 nM; the IC50 under setting [4] was above 10000 nM; the IC50 under setting [5] is above 10000 nM; the IC50 under setting [6] is above 10000 nM. The viability, T/C runs as follows: under setting [7], 126%; under setting [8], 124%; under setting [9], 105%; under setting [10], 92.2%; under setting [31], 110%; under setting [32], 103%. The viability, T/C under setting [11] was 115%; the viability, T/C under setting [12] is 104%; the viability, T/C under setting [13] is 108%; the viability, T/C under setting [14] was 83.7%; the viability, T/C under setting [33] is 96.8%; the viability, T/C under setting [34] is 99.3%. The viability, T/C is 123% under setting [15]; 113% under setting [16]; 104% under setting [17]; 96% under setting [18]; 111% under setting [35]; 95.2% under setting [36]. For the same compound, the viability, T/C reads like this: under setting [19], 84.6%; under setting [20], 97%; under setting [21], 133%; under setting [22], 92.2%; under setting [37], 122%; under setting [38], 95%. Moreover, the viability, T/C by setting is: under setting [23], 91.6%; under setting [24], 119%; under setting [25], 104%; under setting [26], 101%; under setting [39], 114%; under setting [40], 88.4%. For the same compound, the viability, T/C was 121% under setting [27]; 108% under setting [28]; 90.3% under setting [29]; 94.5% under setting [30]; 123% under setting [41]; 92% under setting [42].

The values above are taken from PubChem BioAssay AID2060897 (Molecular Pharmacology Branch, DTP, NCI, 2025).
